Where a name gives a salt, the structure may show the parent alone.
Biological target: human SGLT2 (Homo sapiens (Human), UniProt P31639)
Experiment: Inhibitory effects on human SGLT2 activities (14C-AMG uptake, sodium-dependent glucose transport assay)
Format: cell-based
Conditions: CHO cells stably expressing hSGLT2, 37° C., 2 h, single determinations
Procedure, shortened: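 CHO cells stably expressing hSGLT2 were preincubated 10 min at 37 °C in choline (Na+-free) buffer, then exposed 2 h at 37 °C to compound in Na+ uptake buffer with 8 μM 14C-AMG and 1 mM unlabeled AMG. Radioactivity was scintillation counted; IC50 came from nonlinear regression.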

Chain of human SGLT2 (P31639 whole entry): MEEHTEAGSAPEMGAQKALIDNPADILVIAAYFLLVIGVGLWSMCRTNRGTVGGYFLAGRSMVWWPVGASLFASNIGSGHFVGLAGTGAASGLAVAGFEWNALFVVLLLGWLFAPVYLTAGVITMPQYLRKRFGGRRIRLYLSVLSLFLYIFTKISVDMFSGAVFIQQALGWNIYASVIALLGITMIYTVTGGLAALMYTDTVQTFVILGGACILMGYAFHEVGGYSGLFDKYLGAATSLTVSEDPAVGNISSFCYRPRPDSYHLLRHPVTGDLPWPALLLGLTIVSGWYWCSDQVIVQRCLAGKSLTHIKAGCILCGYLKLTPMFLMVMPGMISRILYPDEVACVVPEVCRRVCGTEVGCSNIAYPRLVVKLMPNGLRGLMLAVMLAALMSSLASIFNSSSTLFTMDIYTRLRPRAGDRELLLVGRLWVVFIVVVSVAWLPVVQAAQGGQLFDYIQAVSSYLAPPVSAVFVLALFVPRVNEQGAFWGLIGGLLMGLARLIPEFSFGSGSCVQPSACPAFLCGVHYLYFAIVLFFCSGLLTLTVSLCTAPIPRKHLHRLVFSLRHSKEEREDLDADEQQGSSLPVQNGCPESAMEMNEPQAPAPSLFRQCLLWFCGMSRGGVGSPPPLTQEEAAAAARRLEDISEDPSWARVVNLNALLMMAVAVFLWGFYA

Row | IC50 [nM] | Structure (SMILES)
1 | 1.55 | CCOc1ccc(Cc2cc([C@@H]3O[C@H](CO)[C@@H](O)[C@H](O)[C@H]3O)c3c(c2Cl)CCCO3)cc1 [Example E012, (2S,3R,4R,5S,6R)-2-(5-Chloro-6-(4-ethoxybenzyl)chroman-8-yl)-6-(hydroxymethyl)tetrahydro-2H-pyran-3,4,5-triol]
2 | 5.6 | CCCc1c(Cc2ccc(OCC)cc2)cc([C@@H]2O[C@H](CO)[C@@H](O)[C@H](O)[C@H]2O)c2c1OCC2 [Example E229, (2S,3R,4R,5S,6R)-2-(6-(4-Ethoxybenzyl)-7-propyl-2,3-dihydrobenzofuran-4-yl)-6-(hydroxymethyl)-tetrahydro-2H-pyran-3,4,5-triol]
3 | 1.27 | CCOc1ccc(Cc2cc([C@@H]3O[C@H](CO)[C@@H](O)[C@H](O)[C@H]3O)c3c(c2Cl)OCCO3)cc1 [Example E013, (2S,3R,4R,5S,6R)-2-(8-Chloro-7-(4-ethoxybenzyl)-2,3-dihydrobenzo[b][1,4]dioxin-5-yl)-6-(hydroxymethyl)tetrahydro-2H-pyran-3,4,5-triol]
4 | 0.793 | COc1ccc(Cc2cc([C@@H]3O[C@H](CO)[C@@H](O)[C@H](O)[C@H]3O)c3c(c2C)CCC3)cc1 [Example E007, (2R,3S,4R,5R,6S)-2-(Hydroxymethyl)-6-(6-(4-methoxybenzyl)-7-methyl-2,3-dihydro-1H-inden-4-yl)tetrahydro-2H-pyran-3,4,5-triol]
5 | 1.01 | CSc1ccc(Cc2cc([C@@H]3O[C@H](CO)[C@@H](O)[C@H](O)[C@H]3O)c3c(c2Cl)CCCO3)cc1 [Example E154, (2S,3R,4R,5S,6R)-2-(5-Chloro-6-(4-(methylthio)benzyl)chroman-8-yl)-6-(hydroxymethyl)tetrahydro-2H-pyran-3,4,5-triol]
6 | 0.685 | CCOc1ccc(Cc2cc([C@@H]3O[C@H](SC)[C@@H](O)[C@H](O)[C@H]3O)c3c(c2Cl)CC(C)O3)cc1 (stereo partly drawn) [Example E145, (2S,3R,4R,5S,6R)-2-(4-Chloro-5-(4-ethoxybenzyl)-2-methyl-2,3-dihydrobenzofuran-7-yl)-6-(methylthio)tetrahydro-2H-pyran-3,4,5-triol]
7 | 16.8 | COC1O[C@@H](c2ccc(Cl)c(Cc3ccc4c(c3)OCCO4)c2)[C@H](O)[C@@H](O)[C@@H]1O (stereo partly drawn) [Example E093, (2S,3R,4R,5S)-2-(4-Chloro-3-((2,3-dihydrobenzo[b][1,4]dioxin-6-yl)methyl)phenyl)-6-methoxytetrahydro-2H-pyran-3,4,5-triol]
8 | 9 | CCOc1ccc(Cc2cc3c(c([C@@H]4O[C@H](CO)[C@@H](O)[C@H](O)[C@H]4O)c2)CCC3)cc1 [Example E002, (2S,3R,4R,5S,6R)-2-(6-(4-Ethoxybenzyl)-2,3-dihydro-1H-inden-4-yl)-6-(hydroxymethyl)tetrahydro-2H-pyran-3,4,5-triol]
9 | 3.17 | CCc1ccc(Cc2cc([C@@H]3O[C@H](CO)[C@@H](O)[C@H](O)[C@H]3O)c3c(c2Cl)NCCO3)cc1 [Example E214, (2S,3R,4R,5S,6R)-2-(5-Chloro-6-(4-ethylbenzyl)-3,4-dihydro-2H-benzo[b][1,4]oxazin-8-yl)-6-(hydroxymethyl)tetrahydro-2H-pyran-3,4,5-triol]
10 | 2 | COc1ccc(Cc2cc([C@@H]3O[C@H](CO)[C@@H](O)[C@H](O)[C@H]3O)c3c(c2Cl)OCCO3)cc1 [Example E104, (2S,3R,4R,5S,6R)-2-(8-Chloro-7-(4-methoxybenzyl)-2,3-dihydrobenzo[b][1,4]dioxin-5-yl)-6-(hydroxymethyl)tetrahydro-2H-pyran-3,4,5-triol]
11 | 0.902 | COc1ccc(Cc2cc([C@@H]3O[C@H](CO)[C@@H](O)[C@H](O)[C@H]3O)c3c(c2Cl)SCC3)cc1 [Example E241, (2S,3R,4R,5S,6R)-2-(7-Chloro-6-(4-methoxybenzyl)-2,3-dihydrobenzo[b]thiophen-4-yl)-6-(hydroxymethyl)tetrahydro-2H-pyran-3,4,5-triol]
12 | 93.3 | CCOc1ccc(Cc2cc([C@@H]3O[C@H](CO)[C@@H](O)[C@H](O)[C@H]3O)cc(-c3ccc(F)cc3)c2C)cc1 [Example E078]
13 | 0.865 | OC[C@H]1O[C@@H](c2ccc(Cl)c(Cc3ccc4sccc4c3)c2)[C@H](O)[C@@H](O)[C@@H]1O [Example E031, (2S,3R,4R,5S,6R)-2-(3-(Benzo[b]thiophen-5-ylmethyl)-4-chlorophenyl)-6-(hydroxymethyl)tetrahydro-2H-pyran-3,4,5-triol]
14 | 4.44 | CC(C)n1cc2cc(Cc3cc([C@@H]4O[C@H](CO)[C@@H](O)[C@H](O)[C@H]4O)ccc3Cl)ccc2n1 [Example E040, (2S,3R,4R,5S,6R)-2-(4-Chloro-3-((2-isopropyl-2H-indazol-5-yl)methyl)phenyl)-6-(hydroxymethyl)tetrahydro-2H-pyran-3,4,5-triol]
15 | 0.628 | COc1cc(Cl)c(Cc2ccc3c(c2)OCCO3)cc1[C@@H]1O[C@H](SC)[C@@H](O)[C@H](O)[C@H]1O [Example E095, (2S,3R,4R,5S,6R)-2-(4-Chloro-5-((2,3-dihydrobenzo[b][1,4]dioxin-6-yl)methyl)-2-methoxyphenyl)-6-(methylthio)-tetrahydro-2H-pyran-3,4,5-triol]
16 | 0.366 | OC[C@H]1O[C@@H](c2cc(Cc3ccc(C4CC4)cc3)c(Cl)c3c2OCO3)[C@H](O)[C@@H](O)[C@@H]1O [Example E158, (2S,3R,4R,5S,6R)-2-(7-Chloro-6-(4-cyclopropylbenzyl)benzo[d][1,3]dioxol-4-yl)-6-(hydroxymethyl)tetrahydro-2H-pyran-3,4,5-triol]
17 | 122 | CNCc1ccc(Cc2cc([C@@H]3O[C@H](CO)[C@@H](O)[C@H](O)[C@H]3O)c3c(c2Cl)OCC3)cc1 [Example E183, (2S,3R,4R,5S,6R)-2-(7-Chloro-6-(4-((methylamino)methyl)benzyl)-2,3-dihydrobenzofuran-4-yl)-6-(hydroxymethyl)tetrahydro-2H-pyran-3,4,5-triol trifluoro acetic acid salt]
18 | 2.68 | COc1cc([C@@H]2O[C@H](CO)[C@@H](O)[C@H](O)[C@H]2O)cc(Cc2ccc3c(c2)OCCO3)c1Cl [Example E043, (2S,3R,4R,5S,6R)-2-(4-Chloro-3-((2,3-dihydrobenzo[b][1,4]dioxin-6-yl)methyl)-5-methoxyphenyl)-6-(hydroxymethyl)tetrahydro-2H-pyran-3,4,5-triol]
19 | 1.65 | CCOc1ccc(Cc2cc([C@@H]3O[C@H](CO)[C@@H](O)[C@H](O)[C@H]3O)c3c(c2Cl)OC(C)C3)cc1 (stereo partly drawn) [Example E135, (2S,3R,4R,5S,6R)-2-(7-Chloro-6-(4-ethoxybenzyl)-2-methyl-2,3-dihydrobenzofuran-4-yl)-6-(hydroxymethyl)tetrahydro-2H-pyran-3,4,5-triol]
20 | 1.8 | CC1Cc2c(Cl)c(Cc3ccc(C(C)C)cc3)cc([C@@H]3O[C@H](CO)[C@@H](O)[C@H](O)[C@H]3O)c2O1 (stereo partly drawn) [Example E149, (2S,3R,4R,5S,6R)-2-(4-Chloro-5-(4-isopropylbenzyl)-2-methyl-2,3-dihydrobenzofuran-7-yl)-6-(hydroxymethyl)tetrahydro-2H-pyran-3,4,5-triol]
21 | 2.16 | OC[C@H]1O[C@@H](c2ccc(Cl)c(Cc3ccc4c(c3)CCS4)c2)[C@H](O)[C@@H](O)[C@@H]1O [Example E032, (2S,3R,4R,5S,6R)-2-(4-Chloro-3-((2,3-dihydrobenzo[b]thiophen-5-yl)methyl)phenyl)-6-(hydroxymethyl)tetrahydro-2H-pyran-3,4,5-triol]
22 | 1.27 | CCOc1ccc(Cc2cc([C@@H]3O[C@H](CO)[C@@H](O)[C@H](O)[C@H]3O)c3c(c2Cl)CC(C)(C)O3)cc1 [Example E220, (2S,3R,4R,5S,6R)-2-(4-Chloro-5-(4-ethoxybenzyl)-2,2-dimethyl-2,3-dihydrobenzofuran-7-yl)-6-(hydroxymethyl)tetrahydro-2H-pyran-3,4,5-triol]
23 | 0.504 | C=CCOc1cc(Cl)c(Cc2ccc(OC)cc2)cc1[C@@H]1O[C@H](SC)[C@@H](O)[C@H](O)[C@H]1O [Example E110, (2S,3R,4R,5S,6R)-2-(2-(Allyloxy)-4-chloro-5-(4-methoxybenzyl)phenyl)-6-(methylthio)tetrahydro-2H-pyran-3,4,5-triol]
24 | 1.28 | CCOc1ccc(Cc2cc([C@@H]3O[C@H](CO)[C@@H](O)[C@H](O)[C@H]3O)c3c(c2C)OCC3)cc1 [Example E129, (2S,3R,4R,5S,6R)-2-(6-(4-Ethoxybenzyl)-7-methyl-2,3-dihydrobenzofuran-4-yl)-6-(hydroxymethyl)tetrahydro-2H-pyran-3,4,5-triol]
25 | 1.85 | OC[C@H]1O[C@@H](c2ccc(Cl)c(Cc3ccc4ncccc4c3)c2)[C@H](O)[C@@H](O)[C@@H]1O [Example E025, (2S,3R,4R,5S,6R)-2-(4-Chloro-3-(quinolin-6-ylmethyl)phenyl)-6-(hydroxymethyl)tetrahydro-2H-pyran-3,4,5-triol]
26 | 0.753 | CCc1ccc(Cc2cc([C@@H]3O[C@H](CO)[C@@H](O)[C@H](O)[C@H]3O)c3c(c2Cl)OCCC3)cc1 [Example E023, (2S,3R,4R,5S,6R)-2-(8-Chloro-7-(4-ethylbenzyl)chroman-5-yl)-6-(hydroxymethyl)tetrahydro-2H-pyran-3,4,5-triol]
27 | 0.629 | CS[C@H]1O[C@@H](c2ccc(Cl)c(Cc3ccc4c(c3)OCCO4)c2)[C@H](O)[C@@H](O)[C@@H]1O [Example E091, (2S,3R,4R,5S,6R)-2-(4-Chloro-3-((2,3-dihydrobenzo[b][1,4]dioxin-6-yl)methyl)phenyl)-6-(methylthio)tetrahydro-2H-pyran-3,4,5-triol]
28 | 0.552 | COc1ccc(Cc2cc([C@@H]3O[C@H](CO)[C@@H](O)[C@H](O)[C@H]3O)c3c(c2Cl)SCCC3)cc1 [Example E242, (2S,3R,4R,5S,6R)-2-(8-Chloro-7-(4-methoxybenzyl)thiochroman-5-yl)-6-(hydroxymethyl)tetrahydro-2H-pyran-3,4,5-triol]
29 | 0.872 | CC(C)c1ccc(Cc2cc([C@@H]3O[C@H](CO)[C@@H](O)[C@H](O)[C@H]3O)c3c(c2Cl)OCO3)cc1 [Example E159, (2S,3R,4R,5S,6R)-2-(7-Chloro-6-(4-isopropylbenzyl)benzo[d][1,3]dioxol-4-yl)-6-(hydroxymethyl)tetrahydro-2H-pyran-3,4,5-triol]

Source: patent US9034921B2, “Diphenylmethane derivatives as SGLT2 inhibitors” (GREEN CROSS CORPORATION, priority 2011, dated 2015)
